Data on 16 substances can be found in patent US6835382B2, “Ii peptide therapeutics to enhance antigen presentation” (University of Massachusetts, priority 1996, dated 2004).

Positions of bridges follow the written chain, without caps; N, C: chain ends. Non-standard residues stand in square brackets, D forms with d. No end group written: not given here. hArg = N=C(N)NCCCC[C@H](N)C(=O)O; Cit = NC(=O)NCCC[C@H](N)C(=O)O

The target in one assay is T1, murine E^d MHC class II allele (Mus musculus, UniProt P01904+P01915).
T1 sequence (P01904 26-255): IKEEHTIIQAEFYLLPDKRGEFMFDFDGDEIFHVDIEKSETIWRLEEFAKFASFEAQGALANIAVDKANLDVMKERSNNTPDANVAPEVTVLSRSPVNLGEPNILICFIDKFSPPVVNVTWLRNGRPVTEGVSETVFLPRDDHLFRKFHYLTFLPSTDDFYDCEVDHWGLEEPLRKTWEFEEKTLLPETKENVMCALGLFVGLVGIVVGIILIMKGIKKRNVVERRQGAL
T1 sequence (P01915 27-264 limits assumed): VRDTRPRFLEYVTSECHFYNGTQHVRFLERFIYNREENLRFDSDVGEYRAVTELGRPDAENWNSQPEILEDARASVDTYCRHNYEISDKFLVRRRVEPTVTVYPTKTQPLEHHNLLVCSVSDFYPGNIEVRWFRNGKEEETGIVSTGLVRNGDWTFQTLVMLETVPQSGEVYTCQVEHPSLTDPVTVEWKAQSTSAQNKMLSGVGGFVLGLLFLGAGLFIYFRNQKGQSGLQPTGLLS
The assay can be described thus: processed antigen assay, E^d allele (APC pulsed with native HEL). Further details: The A20 and CH27 B cell lymphoma lines express H-2^d and H-2^k alleles, respectively; endogenous in cells; host or cells: A20 B cell lymphoma (mitomycin C-treated or paraformaldehyde-fixed). Format: cell-based. Particulars: Table 31; native HEL prepulse 10 μM; AE peptide 64 μM; supernatant dilution 1:4. The method, then:
In a third type of assay, the “processed antigen assay”, certain of the AE101 series of peptides inhibit stimulation of specific T cell hybridomas by antigenic peptides which are derived from the endogenous processing of a native protein antigen. This assay, which is related to the peptide prepulse assay, is performed by incubating APC with native protein antigen for 8 h, after which the pulsed APC are washed and treated with mitomycin C. Those pulsed APC are then combined with AE101 series peptides and T cell hybridomas and are incubated for 24 h. After that incubation, an aliquot of the culture supernatant is transferred to a second culture to measure T cell stimulation, as reflected in the effect of released interleukins on the growth of an interleukin-dependent, indicator cell line. During the 8 h incubation with native protein antigen, the protein antigen is taken into the APC. The native protein enters the processing pathway within the APC, where it is enzymatically cleaved to peptide fragments. Those peptide fragments with high affinity for the particular MHC class II molecules produced by the APC form antigenic peptide/MHC class II complexes which are transported to the cell surface. At the cell surface, the MHC class II molecules are contacted by the AE101 peptides, which cause the release of the antigenic peptide by the same mechanism proposed for the “peptide prepulse” assay above.
The “processed antigen assay” was carried out under essentially the same conditions as the “peptide prepulse assay”, with the following modifications. Untreated APC were incubated at 1×10^6/mL in 24-well plates (1 mL/well) with native protein antigen for 8 h. Following that incubation, the pulsed APC were washed, treated with mitomycin C, and washed again. AE101 series peptide was added at 64 μM, 16 μM, 4 μM, and 1 μM concentrations for 24 h in the presence of the T cell hybridoma specific for the antigenic peptide. Interleukin release from these cultures was measured by proliferation of HT-2 cells to interleukins in supernatants transferred from the primary culture. The baseline T cell response was measured by culturing T hybridoma cells with the native antigen-prepulsed APC in the absence of AE101 series peptides.
The “processed antigen assay” was carried out under essentially the same conditions as the “peptide prepulse” assay, with the following modifications. Untreated APC were incubated at 1×10^6/mL in 24-well plates (1 mL/well) with native protein antigen for 8 h. Following incubation, the pulsed APC were washed, treated with mitomycin C, and were washed again. The assay conditions were then as described for “peptide prepulse” above. The baseline T cell response was measured by culturing T hybridoma cells with the native antigen-prepulsed APC in the absence of AE101 peptides.
Table 2.9: Activities of substitution series at Leucine^80 in AE114 in a processed antigen assay. […] The results in this assay constitute, relatively, a mirror image of the result in the simultaneous assay (Example 1, Table 7) and parallel those of the antigenic peptide prepulse assay (Example 5, Table 24). Untreated APC were incubated with native HEL, instead of antigenic peptide, for 8 h. After incubation, the pulsed cells were washed and mitomycin C treated before being cocultured with AE-peptides and T cell hybridomas. Wells containing only T cells and native HEL-prepulsed APC were used to determine the Baseline response, or 1, in the absence of AE peptides. The concentration of AE peptide used was 64 μM for these assays. The supernatant dilutions used in the HT-2 cell assay were 1:4 (first value) and 1:8 (second value).
As to Ac-A[Cit]NKNPK-NH2 [AE351], the “T cell response relative to baseline (None = 1.00), E^d” value amounted to 0.87.

For Ac-LRMKNPF-NH2 [AE350], the “T cell response relative to baseline (None = 1.00), E^d” value turned out to be 0.56.

Ac-LR Orn K HArg PK-NH2 [AE340]: the “T cell response relative to baseline (None = 1.00), E^d” value is 0.16.

The same assay, now with this note: Table 32; native HEL prepulse 20 μM; AE peptide 64 μM; supernatant dilution 1:4.
Regarding Ac-LK HArg KYPK-NH2 [AE363], the “T cell response relative to baseline (None = 1.0), E^d” value is given as 0.75.

Ac-L[hArg]LKYPK-NH2 [AE361]: the “T cell response relative to baseline (None = 1.0), E^d” value was determined as 0.51.

As to Ac-LRMMYP[Cit]-NH2 [AE367], the “T cell response relative to baseline (None = 1.0), E^d” value is reported as 0.69.

As for Ac-LKMKYPK-NH2 [AE362], the “T cell response relative to baseline (None = 1.0), E^d” value is given as 0.58.

For the substance Ac-LRMKYP[Cit]-NH2 [AE364], the “T cell response relative to baseline (None = 1.0), E^d” value stood at 0.56.

For the substance Ac-LR HArg KYP Cit-NH2 [AE366], the “T cell response relative to baseline (None = 1.0), E^d” value was determined as 0.53.

For Ac-L[hArg]MKYPK-NH2 [AE360], the “T cell response relative to baseline (None = 1.0), E^d” value is recorded as 0.64.

In the case of Ac-LRLKYPN-NH2 [AE368], the “T cell response relative to baseline (None = 1.0), E^d” value came to 0.55.

With Ac-LR HArg MYPK-NH2 [AE365], the “T cell response relative to baseline (None = 1.0), E^d” value stood at 0.65.

Regarding Ac-FK HArg MYP Cit-NH2 [AE371], the “T cell response relative to baseline (None = 1.0), E^d” value stood at 0.61.

Turning to Ac-LRMKYPN-NH2 [AE370], the “T cell response relative to baseline (None = 1.0), E^d” value is 0.55.

The assay is the same for the next values; noted with them: Table 34; AE peptide 64 μM; native HEL 10 μM prepulse; supernatant 1:8.
On to “cyclic LRMKLPK (bridge (positions not given here); also: cyclic, ring type not given here) [AE381, “head-to-tail” cyclization from the amino-terminus to the carboxyl-terminus of AE114]”, for which the “Activity in processed antigen assay, E^d (baseline = 1.0)” value came out at 0.18.

Regarding Ac-LRMKLPK (lactam 4-C) [AE382], the “Activity in processed antigen assay, E^d (baseline = 1.0)” value was determined as 0.61.
